Data from patent US20250114345A1, “COMPOUNDS AND COMPOSITIONS AS CBP/P300 DEGRADERS AND USES THEREOF” (Oncopia Therapeutics, Inc. d/b/a/ SK Life Science Labs, priority 2023, published 2025).

Molecular target: T1, p300 (Homo sapiens, UniProt Q09472)
T1 construct: host or cells: A549 P300 HiBit cells
Assay: P300 degradation, HiBit technology in A549 P300 HiBit cells (2 h)
Assay type: cell-based
Settings: 2 hrs post treatment; for Dmax: A549, A549 P300 HiBit cells; for DC50: A549 P300 HiBit cells
Summary of the method: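 Luminescence after lytic HiBiT detection (10 min, room temperature) gave degradation potency and Dmax. Before that, knock-in A549 cells grown overnight in F-12K/10% HI-FBS were exposed to serially diluted compound at 37 °C, 5% CO2 for the assay time stated.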

T1 sequence (Q09472 whole entry): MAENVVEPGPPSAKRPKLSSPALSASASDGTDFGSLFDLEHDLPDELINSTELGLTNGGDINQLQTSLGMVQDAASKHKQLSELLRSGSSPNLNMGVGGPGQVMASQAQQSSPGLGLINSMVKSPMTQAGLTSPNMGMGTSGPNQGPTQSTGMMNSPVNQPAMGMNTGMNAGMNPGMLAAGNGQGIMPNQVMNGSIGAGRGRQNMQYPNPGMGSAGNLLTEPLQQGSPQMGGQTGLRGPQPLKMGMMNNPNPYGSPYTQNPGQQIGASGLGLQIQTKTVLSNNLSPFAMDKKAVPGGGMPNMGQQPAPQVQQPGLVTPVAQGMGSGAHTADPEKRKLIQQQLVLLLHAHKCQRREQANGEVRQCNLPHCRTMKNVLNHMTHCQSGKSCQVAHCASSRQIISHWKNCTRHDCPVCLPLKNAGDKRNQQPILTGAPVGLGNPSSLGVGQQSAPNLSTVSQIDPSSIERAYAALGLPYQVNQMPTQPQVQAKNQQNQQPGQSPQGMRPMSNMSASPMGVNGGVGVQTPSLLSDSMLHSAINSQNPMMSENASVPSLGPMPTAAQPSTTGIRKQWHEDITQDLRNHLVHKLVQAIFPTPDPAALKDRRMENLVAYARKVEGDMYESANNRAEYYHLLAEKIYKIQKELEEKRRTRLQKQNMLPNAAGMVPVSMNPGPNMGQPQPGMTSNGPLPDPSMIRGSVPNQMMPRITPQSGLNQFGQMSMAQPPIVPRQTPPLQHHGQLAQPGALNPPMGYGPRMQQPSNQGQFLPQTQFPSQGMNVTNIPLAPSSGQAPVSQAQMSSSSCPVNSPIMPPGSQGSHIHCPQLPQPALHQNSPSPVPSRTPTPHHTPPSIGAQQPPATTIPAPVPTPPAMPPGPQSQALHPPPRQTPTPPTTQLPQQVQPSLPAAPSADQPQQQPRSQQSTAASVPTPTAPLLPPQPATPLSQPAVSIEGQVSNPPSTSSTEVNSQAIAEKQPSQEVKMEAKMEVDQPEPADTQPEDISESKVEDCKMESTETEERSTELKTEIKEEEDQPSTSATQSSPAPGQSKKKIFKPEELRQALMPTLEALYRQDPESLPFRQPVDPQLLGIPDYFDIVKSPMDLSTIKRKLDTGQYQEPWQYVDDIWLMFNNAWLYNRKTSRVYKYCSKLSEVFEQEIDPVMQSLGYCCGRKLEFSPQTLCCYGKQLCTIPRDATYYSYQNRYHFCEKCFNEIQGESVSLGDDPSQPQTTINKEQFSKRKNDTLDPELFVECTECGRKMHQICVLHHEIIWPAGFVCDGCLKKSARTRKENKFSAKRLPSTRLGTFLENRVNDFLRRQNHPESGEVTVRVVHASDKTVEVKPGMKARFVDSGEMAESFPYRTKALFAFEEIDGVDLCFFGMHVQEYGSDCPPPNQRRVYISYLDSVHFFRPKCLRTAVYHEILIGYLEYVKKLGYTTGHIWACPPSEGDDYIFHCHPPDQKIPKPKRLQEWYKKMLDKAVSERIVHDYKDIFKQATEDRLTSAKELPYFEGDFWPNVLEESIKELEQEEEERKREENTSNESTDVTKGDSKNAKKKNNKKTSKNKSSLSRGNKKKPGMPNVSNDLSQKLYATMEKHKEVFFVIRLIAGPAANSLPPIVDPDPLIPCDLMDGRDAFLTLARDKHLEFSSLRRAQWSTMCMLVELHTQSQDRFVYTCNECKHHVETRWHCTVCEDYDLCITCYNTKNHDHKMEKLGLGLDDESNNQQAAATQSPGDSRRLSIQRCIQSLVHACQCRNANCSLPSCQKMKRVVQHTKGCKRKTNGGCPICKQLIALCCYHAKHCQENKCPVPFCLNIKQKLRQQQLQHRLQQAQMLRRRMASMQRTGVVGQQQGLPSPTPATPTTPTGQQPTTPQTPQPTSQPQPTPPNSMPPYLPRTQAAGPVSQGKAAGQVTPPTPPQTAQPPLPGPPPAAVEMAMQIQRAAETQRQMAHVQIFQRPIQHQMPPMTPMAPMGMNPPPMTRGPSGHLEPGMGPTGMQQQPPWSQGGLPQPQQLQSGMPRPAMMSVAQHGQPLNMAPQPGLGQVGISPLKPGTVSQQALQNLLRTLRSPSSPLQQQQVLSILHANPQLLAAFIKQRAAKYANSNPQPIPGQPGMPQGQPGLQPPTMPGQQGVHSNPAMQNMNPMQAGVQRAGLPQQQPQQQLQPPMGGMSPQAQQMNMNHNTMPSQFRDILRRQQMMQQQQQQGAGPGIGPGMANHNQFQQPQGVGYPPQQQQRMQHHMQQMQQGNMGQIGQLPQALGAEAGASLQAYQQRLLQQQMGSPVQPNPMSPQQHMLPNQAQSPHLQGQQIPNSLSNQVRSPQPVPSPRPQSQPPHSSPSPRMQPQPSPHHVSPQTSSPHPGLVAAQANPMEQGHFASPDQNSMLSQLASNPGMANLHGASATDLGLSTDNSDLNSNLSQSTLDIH

Row | Dmax [%] | DC50 [nM] | Compound
1 | > 80 | 1 to 9.9 | Cc1cc(-c2ncc(N(C)c3ccc4c(c3)n(C)c(=O)n4C)cn2)cnc1C(=O)NCC#Cc1cc2c(C3CCC(=O)NC3=O)nccc2o1 (centres unmarked) [Example A192, 5-(5-((1,3-dimethyl-2-oxo-2,3-dihydro-1H-benzo[d]imidazol-5-yl)(methyl)amino)pyrimidin-2-yl)-N-(3-(4-(2,6-dioxopiperidin-3-yl)furo[3,2-c]pyridin-2-yl)prop-2-yn-1-yl)-3-methylpicolinamide]
2 | < 20 | > 1000 | Cc1cc(-c2cnc(Nc3cc(C4CCOCC4)c4c(c3)n(C)c(=O)n4C)cn2)cnc1C(=O)NCC#Cc1cc2c(C3CCC(=O)NC3=O)cccc2o1 (centres unmarked) [Example A193]
3 | > 80 | 1 to 9.9 | CC(C)c1cc(-c2cccc3cc(-c4ccc(C(=O)NCC#Cc5cnc6occ(C7CCC(=O)NC7=O)c6c5)nc4)ncc23)cc2c1n(C)c(=O)n2C (centres unmarked) [Example A196, N-(3-(3-(2,6-dioxo-piperidin-3-yl)furo[2,3-b]pyridin-5-yl)prop-2-yn-1-yl)-5-(8-(7-isopropyl-1,3-dimethyl-2-oxo-2,3-dihydro-1H-benzo[d]imidazol-5-yl)isoquinolin-3-yl)picolinamide]
4 | < 20 | > 1000 | Cc1cc(-c2cc(N(C)C)c(N(C)c3cc(C4CCOCC4)c4c(c3)n(C)c(=O)n4C)cn2)cnc1C(=O)NCC#Cc1cc2c(C3CCC(=O)NC3=O)cccc2o1 (centres unmarked) [Example A198, 5-((1,3-dimethyl-2-oxo-7-(tetrahydro-2H-pyran-4-yl)-2,3-dihydro-1H-benzo[d]imidazol-5-yl)(methyl)amino)-4-(dimethylamino)-N-(3-(4-(2,6-dioxopiperidin-3-yl)benzofuran-2-yl)prop-2-yn-1-yl)-5′-methyl-[2,3′-bipyridine]-6′-carboxamide]
5 | > 80 | 1 to 9.9 | Cc1nc(-c2cnc(N(C)c3cc(C4CCOCC4)c4c(c3)n(C)c(=O)n4C)cn2)cnc1C(=O)NCC#Cc1cc2c(C3CCC(=O)NC3=O)nccc2o1 (centres unmarked) [Example A200, 5′-((1,3-dimethyl-2-oxo-7-(tetrahydro-2H-pyran-4-yl)-2,3-dihydro-1H-benzo [d]imidazol-5-yl) (methyl)amino)-N-(3-(4-(2,6-dioxo-piperidin-3-yl)furo[3,2-c]pyridin-2-yl)prop-2-yn-1-yl)-6-methyl-[2,2′-bipyrazine]-5-carboxamide]
6 | > 80 | 1 to 9.9 | Cc1cc(-c2ncc(N(C)c3cc(C4CCOCC4)c4c(c3)n(C)c(=O)n4C)cn2)cnc1C(=O)NCC#Cc1ccc2occ(C34CC(C3)C(=O)NC4=O)c2c1 [Example A201, 5-(5-((1,3-dimethyl-2-oxo-7-(tetrahydro-2H-pyran-4-yl)-2,3-dihydro-1H-benzo[d]imidazol-5-yl)(methyl)amino)pyrimidin-2-yl)-N-(3-(3-(2,4-dioxo-3-azabicyclo[3.1.1]heptan-1-yl)benzofuran-5-yl)prop-2-yn-1-yl)-3-methylpicolinamide]
7 | > 80 | 1 to 9.9 | Cn1c(=O)n(C)c2c(N3CCC3)nc(-c3cccc4cc(-c5ccc(C(=O)NCC#Cc6cc7c(C8CCC(=O)NC8=O)cccc7o6)nc5)ncc34)cc21 (centres unmarked) [Example A205, 5-(8-(4-(azetidin-1-yl)-1,3-dimethyl-2-oxo-2,3-dihydro-1H-imidazo[4,5-c]pyridin-6-yl)iso-quinolin-3-yl)-N-(3-(4-(2,6-dioxopiperidin-3-yl)benzofuran-2-yl)prop-2-yn-1-yl)picolinamide]
8 | > 80 | < 1 | Cn1c(=O)n(C)c2c(N3CCOCC3)nc(-c3cccc4cc(-c5ccc(C(=O)NCC#Cc6cc7c(C8CCC(=O)NC8=O)nccc7o6)nc5)ncc34)cc21 (centres unmarked) [Example A206, 5-(8-(1,3-dimethyl-4-morpholino-2-oxo-2,3-dihydro-1H-imidazo[4,5-c]pyridin-6-yl)isoquinolin-3-yl)-N-(3-(4-(2,6-dioxopiperidin-3-yl)furo[3,2-c]pyridin-2-yl)prop-2-yn-1-yl)picolinamide]
9 | > 80 | < 1 | Cc1cc(N2CCN(C)c3cc(-c4ccc(C(=O)NCC#Cc5cc6c(C7CCC(=O)NC7=O)nccc6o5)nc4)ncc32)cc2c1n(C)c(=O)n2C (centres unmarked) [Example A209, N-(3-(4-(2,6-dioxo-piperidin-3-yl)furo [3,2-c]pyridin-2-yl)prop-2-yn-1-yl)-5-(1-methyl-4-(1,3,7-trimethyl-2-oxo-2,3-dihydro-1H-benzo[d]imidazol-5-yl)-1,2,3,4-tetrahydropyrido[3,4-b]pyrazin-7-yl)picolinamide]
10 | 60 to 79 | 10 to 99 | CC(C)c1cc(-c2cccc3cc(-c4ccc(C(=O)NCC#Cc5ccc6ncnc(C7CCC(=O)NC7=O)c6c5)nc4)ncc23)cc2c1n(C)c(=O)n2C (centres unmarked) [Example A214, N-(3-(4-(2,6-dioxo-piperidin-3-yl)quinazolin-6-yl)prop-2-yn-1-yl)-5-(8-(7-isopropyl-1,3-dimethyl-2-oxo-2,3-dihydro-1H-benzo [d]imidazol-5-yl)isoquinolin-3-yl)picolinamide]
11 | 60 to 79 | 10 to 99 | Cn1c(=O)n(C)c2cc(N3CCCc4nc(-c5ccc(C(=O)NCC#Cc6ccc7occ(C89CC(C8)C(=O)NC9=O)c7c6)nc5)ncc43)ccc21 [Example A215, 5-(5-(1,3-dimethyl-2-oxo-2,3-dihydro-1H-benzo[d]imidazol-5-yl)-5,6,7,8-tetrahydropyrido[3,2-d]pyrimidin-2-yl)-N-(3-(3-(2,4-dioxo-3-azabicyclo[3.1.1]heptan-1-yl)benzofuran-5-yl)prop-2-yn-1-yl)picolinamide]
12 | > 80 | 1 to 9.9 | Cn1c(=O)n(C)c2cc(N3CCCc4cc(-c5ccc(C(=O)NCC#Cc6cc7c(C8CCC(=O)NC8=O)cccc7o6)nc5)nnc43)ccc21 (centres unmarked) [Example A217, 5-(8-(1,3-dimethyl-2-oxo-2,3-dihydro-1H-benzo[d]imidazol-5-yl)-5,6,7,8-tetrahydropyrido[2,3-c]pyridazin-3-yl)-N-(3-(4-(2,6-dioxo-piperidin-3-yl)benzofuran-2-yl)prop-2-yn-1-yl)picolinamide]
13 | > 80 | < 1 | CN1CCN(c2ccc3c(c2)n(C)c(=O)n3C)c2cnc(-c3ccc(C(=O)NCC#Cc4cc5c(C6CCC(=O)NC6=O)nccc5o4)nc3)cc21 (centres unmarked) [Example A218, 5-(4-(1,3-dimethyl-2-oxo-2,3-dihydro-1H-benzo[d]imidazol-5-yl)-1-methyl-1,2,3,4-tetrahydropyrido[3,4-b]pyrazin-7-yl)-N-(3-(4-(2,6-dioxo-piperidin-3-yl)furo[3,2-c]pyridin-2-yl)prop-2-yn-1-yl)picolinamide]
14 | > 80 | 1 to 9.9 | Cc1cc(N2CCN(C)c3nc(-c4ccc(C(=O)NCC#Cc5cc6c(C7CCC(=O)NC7=O)nccc6o5)nc4)ncc32)cc2c1n(C)c(=O)n2C (centres unmarked) [Example A220, N-(3-(4-(2,6-dioxo-piperidin-3-yl)furo[3,2-c]pyridin-2-yl)prop-2-yn-1-yl)-5-(8-methyl-5-(1,3,7-trimethyl-2-oxo-2,3-dihydro-1H-benzo [d]imidazol-5-yl)-5,6,7,8-tetrahydro-pteridin-2-yl)picolinamide]
15 | > 80 | 1 to 9.9 | Cc1nc(-c2cnc(N(C)c3cc(C4CCOCC4)c4c(c3)n(C)c(=O)n4C)cn2)cnc1C(=O)NCC#Cc1cc2c(C3CCC(=O)NC3=O)cccc2o1 (centres unmarked) [Example A222, 5′-((1,3-dimethyl-2-oxo-7-(tetrahydro-2H-pyran-4-yl)-2,3-dihydro-1H-benzo[d]imidazol-5-yl)(methyl)amino)-N-(3-(4-(2,6-dioxo-piperidin-3-yl)benzofuran-2-yl)prop-2-yn-1-yl)-6-methyl-[2,2′-bipyrazine]-5-carboxamide]
16 | > 80 | 1 to 9.9 | CCN(c1cnc(-c2ccc(C(=O)NCC#Cc3cc4c(C5CCC(=O)NC5=O)cccc4o3)nc2)nc1)c1cc(C2CCOCC2)c2c(c1)n(C)c(=O)n2C (centres unmarked) [Example A224, 5-(5-((1,3-dimethyl-2-oxo-7-(tetrahydro-2H-pyran-4-yl)-2,3-dihydro-1H-benzo[d]imidazol-5-yl)(ethyl)amino)pyrimidin-2-yl)-N-(3-(4-(2,6-dioxopiperidin-3-yl)benzofuran-2-yl)prop-2-yn-1-yl)picolinamide]
17 | < 20 | > 1000 | Cc1cc(-c2ncc(N(C)c3cc(C4CCOCC4)c4c(c3)n(C)c(=O)n4C)c(N(C)C)n2)cnc1C(=O)NCC#Cc1cc2c(C3CCC(=O)NC3=O)cccc2o1 (centres unmarked) [Example A225, 5-(5-((1,3-dimethyl-2-oxo-7-(tetrahydro-2H-pyran-4-yl)-2,3-dihydro-1H-benzo[d]imidazol-5-yl)(methyl)amino)-4-(dimethylamino)pyrimidin-2-yl)-N-(3-(4-(2,6-dioxopiperidin-3-yl)benzofuran-2-yl)prop-2-yn-1-yl)-3-methylpicolinamide]
18 | > 80 | 1 to 9.9 | Cc1cc(-c2ncc3c(n2)CCCN3c2cc(C)c3c(c2)n(C)c(=O)n3C)cnc1C(=O)NCC#Cc1cc2c(C3CCC(=O)NC3=O)cccc2o1 (centres unmarked) [Example A227, N-(3-(4-(2,6-dioxo-piperidin-3-yl)benzofuran-2-yl)prop-2-yn-1-yl)-3-methyl-5-(5-(1,3,7-trimethyl-2-oxo-2,3-dihydro-1H-benzo [d]imidazol-5-yl)-5,6,7,8-tetrahydro-pyrido[3,2-d]pyrimidin-2-yl)picolinamide]
19 | 60 to 79 | 1 to 9.9 | CC(C)c1cc(-c2cccc3cc(-c4ccc(C(=O)NCC#Cc5cc6c(C7CCC(=O)NC7=O)coc6cn5)nc4)ncc23)cc2c1n(C)c(=O)n2C (centres unmarked) [Example A228, N-(3-(3-(2,6-dioxo-piperidin-3-yl)furo[2,3-c]pyridin-5-yl)prop-2-yn-1-yl)-5-(8-(7-isopropyl-1,3-dimethyl-2-oxo-2,3-dihydro-1H-benzo [d]imidazol-5-yl)isoquinolin-3-yl)picolinamide]
